In patent publication US5658880A, “Sialic acid/fucose based medicaments” (Glycomed Incorporated, priority 1994, dated 1997):
pIC50: −log10 of the molar value.

How the values were obtained:
P-selectin = assay: ELISA: inhibition of P-selectin-IgG chimera binding to 2,3 sLe^x glycolipid; set-up: species or system human; details: inhibition of binding to 2,3 sLex glycolipid
Description: (§1) An ELISA assay is preferably used that employs recombinant fusion proteins composed of extracellular portions of the human selectins joined to human immunoglobulin heavy chain CH3, CH2, and hinge regions. See, for example, Walz et al., Science (1990) 250:1132; Aruffo et al., Cell (1991) 67:35; Aruffo et al., Proc. Natl. Acad. Sci. USA. (1992) 89:2292. The assay is well known in the art, and generally consists of the following three steps:
(§2) I. 2,3 sLe^x glycolipid (25 picomole/well) was transferred into microtiter wells as solutions and then evaporated off. Excess, which remained unattached, was washed off with water. The wells were then blocked with 5% BSA at room temperature for an hour and then washed with PBS containing 1 mM calcium.
(§3) II. Preparation of "multivalent" receptor of the Selectin-lgG chimera was carried out by combining the respective chimera (1 μg/mL) with biotin labelled goat F(ab')2 anti-human IgG (Fc specific) and streptavidin-alkaline phosphatase diluted 1:1000 in 1% BSA-PBS (1 mM calcium) and incubating at 37° C. for 15 min. This allowed the soluble multivalent receptor complex to form. III. Potential inhibitors such as the compounds of formula I or II were allowed to react with the soluble receptor at 37° C. for 45 min. This test assumes that optimal binding, between the soluble phase receptor complex and the inhibitor (non natural ligand), would have occurred within this time frame. This solution was then placed in the microtiter wells that were prepared in step I. The plate was incubated at 37° C. for 45 minutes to allow the soluble receptor to bind to its natural ligand. In the presence of a strong inhibitor only a few receptors should be free to bind to the microtiter plate coated with the natural ligand.
(§4) The positive control is the signal produced by the soluble receptor when it is allowed to react with 2,3 sLe^x glycolipid in the microtiter wells in the absence of any inhibitor. This positive control was considered 100% binding. The signal produced by the receptor that had been previously treated with an inhibitor (recorded as O.D.), was divided by the signal produced by the positive control and multiplied by 100 to calculate the % receptor bound to the well in the presence of the inhibitor. The reciprocal of this number is the % inhibition.
as §1, with “was employed” for “is preferably used”, “uses” for “employs”, “USA” for “USA.”
(§5) II. Preparation of "multivalent" receptor of the Selectin-IgG chimera was carried out by combining the respective chimera 1 μg/ml) with biotin labelled goat F(ab')2 anti-human IgG (Fc specific) and streptavidin-alkaline phosphatase diluted 1:1000 in 1% BSA-PBS (1 mM calcium) and incubating at 37° C. for 15 min. This allowed the soluble multivalent receptor complex to form.
(§6) III. Potential inhibitors such as compounds of formula I or II were allowed to react with the soluble receptor at 37° C. for 45 min. This test assumes that optimal binding, between the soluble phase receptor complex and the inhibitor (non natural ligand), would have occurred within this time frame. This solution was then placed in the microtiter wells that were prepared in step I. The plate was incubated at 37° C. for 45 minutes to allow the soluble receptor to bind to its natural ligand. In the presence of a strong inhibitor only a few receptors should be free to bind to the microtiter plate coated with the natural ligand.
(§7) The positive control is the signal produced by the soluble receptor when it is allowed to react with 2,3 sLe^x glycolipid in the microtiter wells in the absence of any inhibitor. This was considered 100% binding. […]

E-selectin = assay: ELISA: inhibition of E-selectin-IgG chimera binding to 2,3 sLe^x glycolipid; set-up: species or system human
Description: as §1, §2, §3, §4
as §1, with “was employed” for “is preferably used”, “uses” for “employs”, “USA” for “USA.”
as §5, §6, §7

L-selectin = assay: ELISA: inhibition of L-selectin-IgG chimera binding to 2,3 sLe^x glycolipid; set-up: species or system human
Description: as §1, §2, §3, §4
as §1, with “was employed” for “is preferably used”, “uses” for “employs”, “USA” for “USA.”
as §5, §6, §7

[1] = tested on: neutrophil migration into the peritoneum; assay: Murine thioglycollate induced peritonitis: neutrophil migration to the peritoneal cavity; type: in vivo, mouse (Swiss Webster)
Description: The efficaciousness of 7 and 10 was shown using a murine thioglycollate induced peritonitis model. The assay materials and methods are known in the art, or are generally described by Lewinsohn, D. et al., J. Immun., 138:4313-4321 (1987), or Watson, S. et al., Nature 349:164-166 (1991). This assay measures the ability of the compounds to inhibit neutrophil migration to the peritoneal cavity, the migration being initiated by the presence of thioglycollate in the peritoneal cavity. Thioglycollate is a known and effective inflammatory agent that causes neutrophil migration into the mouse peritoneum when it is administered intraperitoneally. Lewinsohn, D. et al., J. Immun. (1987) 138:4313-4321. Briefly, female Swiss Webster mice weighing about 25 grams were injected in the tail vein with 200 μl of phosphate buffered saline (PBS) with or without the appropriate compound. The pH of the solutions was adjusted to neutrality by the addition of either NaOH or HCL and sterilized by filtration through a 0.2 μ filter. Immediately following injection with the appropriate compound or PBS, the mice were injected intraperitoneally with 1 ml of thioglycollate medium prepared as described by the manufacturer, BBL. Three hours following injection of the thioglycollate solution the mice were sacrificed by CO2 asphyxiation, and the number of cells in the peritoneum removed by lavage with 5 ml of heparinized (5 U/ml) 0.9% sodium chloride solution containing 0.1% bovine serum albumin. Cell number was determined using a Coulter Counter. The cells were prepared for counting by diluting the lavage fluid with 1:50 of a commercial physiological isotonic solution, Isoton II, and the cells lysed by adding S/P Lysing and Hemoglobin Reagent (1:100 final dilution). Cell nuclei were counted in a sized window with lower and upper limits set at 3.9 and 5.7 μm, respectively.

[2] = inhibition of binding to 2,3 sLex glycolipid

pIC50 (P-selectin): < 2.40 | pIC50 (E-selectin; [2]): < 2.40 | pIC50 (L-selectin; [2]): 2.52 to 3.00
SMILES: CC(=O)NC1C(O)CC(OCCCCCCOC2OC(C)C(O)C(O)C2O)(C(=O)O)OC1C(O)C(O)CO [Compound 7, 1-O-α-Neu5Ac-(6-O-α-L-Fucopyranosyl)-Hexane]
inhibition of E-selectin binding to 2,3 sLe^x glycolipid (E-selectin; FIG. 4, result in words): inhibit E-selectin binding to 2,3 sLe^x glycolipid | inhibition of L-selectin binding to 2,3 sLe^x glycolipid (L-selectin; FIG. 5 and FIG. 6, result in words): inhibit L-selectin binding in a concentration dependent manner | inhibited more neutrophil migration than 10 ([1]; 7 compared with 10, FIG. 7): about 30% | inhibit neutrophil migration into the peritoneum ([1]; mice, tail vein injection, 3 h after thioglycollate, FIG. 7(a) and (b)): inhibit neutrophil migration into the peritoneum
